The experiment concerns cGMP-PDE I. Nature of the experiment: cGMP-PDE I inhibitory activity (cyclic nucleotide hydrolysis, isolated PDE isozyme). The experiment is classed as biochemical, various animal species and man. The settings on record: for IC50: values marked * are from two separate experimental runs. How it is done:
Multiple isozymic forms of cyclic nucleotide phosphodiesterase (PDE) have been identified in mammalian cells. […] Elevation of intracellular cGMP in vascular smooth muscle triggers a cascade of events that leads to a reduction in muscle tone while elevations in renal tubule cell cGMP stimulates natriuresis and diuresis. Vascular smooth muscle and renal cells contain a phosphodiesterase isozyme that has a low Km (1 μM) for the hydrolysis of cGMP. This isozyme has been referred to as the cGMP-PDE or cGMP-PDE I since it elutes from an anion-exchange sepharose resin in the first peak of PDE activity at a sodium acetate concentration between 150-200 mM. Thus inhibition of the cGMP-PDE isozyme is a viable subcellular mechanism by which increases in cGMP can produce a reduction in total peripheral resistance and a stimulation of natriuresis and diuresis. The development of cGMP-PDE inhibitors represents an approach for the discovery of agents useful for treating heart failure and hypertension. For example, compounds having high inhibitory potency for the cGMP-PDE are expected to lower blood pressure and induce natriuresis and diuresis.
The cGMP-PDE and other PDE isozymes were isolated from cardiovascular tissues (heart and aorta) of various animal species and man by anion-exchange and affinity chromatography as described by Silver et al., Sec. Messeng. Phos. 13:13-25, 1991; PDE activity, in the presence and absence of test compounds was determined essentially as described by Thompson et al., Adv. Cyclic Nucleotide Res. 10:69-92. To determine the potency and selectivity of compounds as PDE inhibitors, compounds are screened for their effect on cyclic nucleotide hydrolysis at 10 μM. If ≥50% inhibition of PDE activity is observed, an IC50 value (concentration of compound causing 50% reduction in PDE activity) and corresponding 95% confidence intervals are generated. The IC50 values are calculated from concentration-response curves as described by Tallarida and Murray, Manual of Pharmacologic Calculations with Computer Programs, Procedure 8, Graded Dose-response, pp. 14-19, Springer-Verlag, N.Y., 1981.

The structures appear in SMILES notation. Counter-ions that a name gives are not always drawn.

For orientation: IC50 means the concentration at which inhibition is half-maximal. Higher therefore signals lower potency. The molecule `Cc1[nH]n(C2CCCO2)c2nc(-c3ccncc3)nc(=O)c1-2` (stereo not shown) [Example 104, 1-(2-tetrahydrofuranyl)-3-methyl-6-(4-pyridyl)-pyrazolo-[3,4-d]pyrimidin-4-one] came in with an IC50 of 12400 nM.
Regarding `Cc1[nH]n(Cc2ccc([N+](=O)[O-])cc2)c2nc(-c3ccncc3)nc(=O)c1-2` [Example 105, 1-(4-Nitrophenylmethyl)-3-methyl-6-(4-pyridyl)pyrazolo[3,4-d]pyrimidin-4-one], the IC50 worked out at 6700 nM.
Consider `Cc1[nH]n(Cc2cc([N+](=O)[O-])ccc2Cl)c2nc(-c3ccncc3)nc(=O)c1-2` [Example 106, 1-(2-Chloro-5-nitrophenylmethyl)-3-methyl-6-(4-pyridyl)pyrazolo[3,4-d]pyrimidin-4-one], for which the “Percent Inhibition cGMP-PDE I” value runs as follows: (1 μM) 24%; (10 μM) 63%.
Take `Cc1[nH]n(Cc2cc(NS(=O)(=O)c3cccc4cccnc34)ccc2Cl)c2nc(-c3ccncc3)nc(=O)c1-2` [Example 108, 1-[2-Chloro-5-((8-quinolinylsulfonyl)amino)phenylmethyl]-3-methyl-6-(4-pyridyl)-pyrazolo[3,4-d]pyrimidin-4-one]: the “Percent Inhibition cGMP-PDE I” value reads like this: (1 μM) 38%; (10 μM) 86%.
On to `Cc1nn(C2CCCC2)c2nc(C3CCNCC3)[nH]c(=O)c12` [Example 109, 1-Cyclopentyl-3-methyl-6-(4-piperidinyl)-pyrazolo[3,4-d]-pyrimidin-4-one monohydrochloride. 1/2 hydrate], for which the “Percent Inhibition cGMP-PDE I” value by setting is: (1 μM) 7%; (10 μM) 13%.
For `Cc1[nH]n(Cc2ccc(C(N)=O)cc2)c2nc(-c3ccncc3)nc(=O)c1-2` [Example 110, 1-(4-Carbamoylphenylmethyl)-3-methyl-6-(4-pyridyl)pyrazolo[3,4-d]pyrimidin-4-one], the “Percent Inhibition cGMP-PDE I” value is, setting by setting: (1 μM) 23%; (10 μM) 74%.
The like results for `Cc1[nH]n(Cc2ccc(C(=O)O)cc2)c2nc(-c3ccncc3)nc(=O)c1-2` [Example 111, 1-(4-Carboxylphenylmethyl)-3-methyl-6-(4-pyridyl)-pyrazolo[3,4-d]pyrimidin-4-one] were, in that order, 0% and 24%.
Consider `Cc1[nH]n(Cc2cccc(C(=O)O)c2)c2nc(-c3ccncc3)nc(=O)c1-2` [Example 112, 1-(3-Carboxyphenylmethyl)-3-methyl-6-(4-pyridyl)-pyrazolo[3,4-d]pyrimidin-4-one], for which the “Percent Inhibition cGMP-PDE I” value (1 μM) was 4% and the “Percent Inhibition cGMP-PDE I” value (10 μM) came out at 52%.
`Cc1[nH]n(Cc2cccc(C(N)=O)c2)c2nc(-c3ccncc3)nc(=O)c1-2` [Example 113, 1-(3-Carbamoylphenylmethyl)-3-methyl-6-(4-pyridyl) pyrazolo[3,4-d]pyrimidin-4-one]: the “Percent Inhibition cGMP-PDE I” value is 0% (1 μM) and 48% (10 μM).
For the molecule `CCc1nn(C2CCCC2)c2nc(-c3cccn4ccnc34)[nH]c(=O)c12` [Example 114c, 1-cyclopentyl-3-ethyl-6-(8-imidazo[1,2-a]pyridine)pyrazolo[3,4-d]pyrimidin-4-one methanesulfonate], the “Percent Inhibition cGMP-PDE I” value stood at 5% (1 μM) and 52% (10 μM).
For `CC(=O)N1CCC(c2nc3n(C4CCCC4)[nH]c(C)c-3c(=O)n2)CC1` [Example 115, 1-Cyclopentyl-3-methyl-6-(1-acetyl-4-piperidinyl)pyrazolo[3,4-d]pyrimidin-4-one], the “Percent Inhibition cGMP-PDE I” value is, setting by setting: (1 μM) 6%; (10 μM) 51%.
As to `Cc1[nH]n(C2CCCC2)c2nc(C3CCN(C(=O)C(F)(F)F)CC3)nc(=O)c1-2` [Example 116, 1-Cyclopentyl-3-methyl-6-(1-trifluoroacetyl-4-piperidinyl)pyrazolo[3,4-d]pyrimidin-4-one], for the setting “1 μM”, the “Percent Inhibition cGMP-PDE I” value was determined as 34%.
Turning to `CCc1[nH]n(C2CCCC2)c2nc(-c3cc(C)nc(Cl)c3)nc(=O)c1-2` [Example 117, 1-Cyclopentyl-3-ethyl-6-(2-chloro-6-methyl-4-pyridyl)pyrazolo[3,4-d]pyrimidin-4-one], the “Percent Inhibition cGMP-PDE I” value reads like this: (1 μM) 11%; (10 μM) 22%.
As to `CCc1[nH]n(C2CCCC2)c2nc(-c3ccnc(C)c3)nc(=O)c1-2` [Example 118, 1-Cyclopentyl-3-ethyl-6-(2-methyl-4-pyridyl)pyrazolo[3,4-d]pyrimidin-4-one], inhibition was half-maximal at 660 nM (IC50). Also, the “Percent Inhibition cGMP-PDE I” value (0.1 μM) was found to be 22%. For the same molecule, for the setting “1 μM”, the “Percent Inhibition cGMP-PDE I” value came out at 61%.
As for `CCc1nn(C2CCCC2)c2nc(-c3cc(C)nc(-n4ccnc4)c3)[nH]c(=O)c12` [Example 120, 1-Cyclopentyl-3-ethyl-6-[2-(1-imidazolyl)-6-methyl-4-pyridyl]pyrazolo[3,4-d]pyrimidin-4-one-1/4 hydrate], the “Percent Inhibition cGMP-PDE I” value came out at 16% (0.1 μM) and 60% (1 μM).
Regarding `CCc1[nH]n(C2CCCC2)c2nc(-c3ccnc(-n4ccnc4)c3)nc(=O)c1-2` [Example 121c, 1-Cyclopentyl-3-ethyl-6-[2-(1-imidazolyl)-4-pyridyl]pyrazolo[3,4-d]pyrimidin-4-one], half-maximal inhibition (IC50) was put at 240 nM. Moreover, the “Percent Inhibition cGMP-PDE I” value (0.1 μM) worked out at 11%. For the same molecule, under “1 μM”, the “Percent Inhibition cGMP-PDE I” value was found to be 68%.
Take `CCc1[nH]n(C2CCCC2)c2nc(-n3ccnc3)nc(=O)c1-2` [Example 122d, 1-Cyclopentyl-3-ethyl-6-(1-imidazolyl)pyrazolo[3,4-d]pyrimidin-4-one]: the “Percent Inhibition cGMP-PDE I” value by setting is: (1 μM) 16%; (10 μM) 46%.
`CCc1[nH]n(C2CCCC2)c2nc(-c3ccnc(Cl)c3)nc(=O)c1-2` [Example 125b, 1-Cyclopentyl-3-ethyl-6-(2-chloro-4-pyridyl)pyrazolo[3,4-d]pyrimidin-4-one] gave an IC50 of 580 nM. Moreover, the “Percent Inhibition cGMP-PDE I” value (0.1 μM) is 27%. In addition, the “Percent Inhibition cGMP-PDE I” value (1 μM) amounted to 59%.
As for `Cc1[nH]n(C2CCCC2)c2nc(-c3cc[nH]c(=O)c3)nc(=O)c1-2` [Example 126b, 1-Cyclopentyl-3-methyl-6-(2-oxo-4-pyridyl)pyrazolo[3,4-d]pyrimidin-4-one], the “Percent Inhibition cGMP-PDE I” value is, setting by setting: (0.1 μM) 0%; (1 μM) 32%.
Take `CCc1[nH]n(C2CCCC2)c2nc(-c3ccnc(N4CCOCC4)c3)nc(=O)c1-2` [Example 129c, 1-Cyclopentyl-3-ethyl-6-(2-(4-morpholinyl)-4-pyridyl)pyrazolo[3,4-d]pyrimidin-4-one]: the “Percent Inhibition cGMP-PDE I” value reads like this: (0.1 μM) 35%; (1 μM) 64%.
On to `CCc1[nH]n(C2CCCC2)c2nc(-c3ccncc3OC3CCC3)nc(=O)c1-2` [Example 130B, 1-Cyclopentyl-3-ethyl-6-(3-cyclobutyloxy-4-pyridyl)pyrazolo[3,4-d]pyrimidin-4-one], for which, under “0.01 μM”, the “Percent Inhibition cGMP-PDE I” value came out at 91%.
Consider `CCc1[nH]n(C2CCCC2)c2nc(-c3ccncc3OCCOC)nc(=O)c1-2` [Example 131b, 1-Cyclopentyl-3-ethyl-6-(3-(2-methoxyethoxy)-4-pyridyl)pyrazolo[3,4-d]pyrimidin-4-one], for which the “Percent Inhibition cGMP-PDE I” value by setting is: (0.01 μM) 22%; (0.1 μM) 61%; (1 μM) 86%.
In the case of `CCCOc1cnccc1-c1nc2n(C3CCCC3)[nH]c(CC)c-2c(=O)n1` [Example 133c, 1-Cyclopentyl-3-ethyl-6-(3-propoxy-4-pyridyl)pyrazolo[3,4-d]pyrimidin-4-one], under “0.01 μM”, the “Percent Inhibition cGMP-PDE I” value is 82%.
On to `COc1cnccc1-c1nc2n(C(C)(C)C)[nH]c(Cc3ccncc3)c-2c(=O)n1` [Example 134b, 1-tert-Butyl-3-(4-pyridylmethyl)-6-(3-methoxy-4-pyridyl)pyrazolo[3,4-d]pyrimidin-4-one], for which the “Percent Inhibition cGMP-PDE I” value was 35% (0.01 μM) and 55% (0.1 μM).
For the molecule `COc1cnccc1-c1nc2n(C3CCCC3)[nH]c(C(F)(F)F)c-2c(=O)n1` [Example 135, 1-Cyclopentyl-3-trifluoromethyl-6-(3-methoxy-4-pyridyl)pyrazolo[3,4-d]pyrimidin-4-one], the “Percent Inhibition cGMP-PDE I” value by setting is: (0.01 μM) 36%; (0.1 μM) 68%; (1 μM) 88%.
For `CCc1[nH]n(C(C)(C)C)c2nc(-c3ccncc3OC)nc(=O)c1-2` [Example 136, 1-tert-Butyl-3-ethyl-6-(3-methoxy-4-pyridyl)pyrazolo[3,4-d]pyrimidin-4-one], the “Percent Inhibition cGMP-PDE I” value reads like this: (0.01 μM) 28%; (0.1 μM) 39%; (1 μM) 73%.
As for `CCc1[nH]n(C2CCCC2)c2nc(-c3cccnc3)nc(=O)c1-2` [Example 137, 1-Cyclopentyl-3-ethyl-6-(3-pyridyl)pyrazolo[3,4-d]pyrimidin-4-one], the “Percent Inhibition cGMP-PDE I” value was 27% (0.1 μM) and 64% (1 μM).
